What is called Ki is the dissociation constant of the complex between target and ligand, obtained from inhibition or displacement. Read a high Ki as lower affinity.

The assay has as its target T1, hM2 muscarinic receptor subtype (Homo sapiens, UniProt P08172).
T1 construct: expressed in transfected cells; membranes prepared
T1 sequence (P08172 1-466): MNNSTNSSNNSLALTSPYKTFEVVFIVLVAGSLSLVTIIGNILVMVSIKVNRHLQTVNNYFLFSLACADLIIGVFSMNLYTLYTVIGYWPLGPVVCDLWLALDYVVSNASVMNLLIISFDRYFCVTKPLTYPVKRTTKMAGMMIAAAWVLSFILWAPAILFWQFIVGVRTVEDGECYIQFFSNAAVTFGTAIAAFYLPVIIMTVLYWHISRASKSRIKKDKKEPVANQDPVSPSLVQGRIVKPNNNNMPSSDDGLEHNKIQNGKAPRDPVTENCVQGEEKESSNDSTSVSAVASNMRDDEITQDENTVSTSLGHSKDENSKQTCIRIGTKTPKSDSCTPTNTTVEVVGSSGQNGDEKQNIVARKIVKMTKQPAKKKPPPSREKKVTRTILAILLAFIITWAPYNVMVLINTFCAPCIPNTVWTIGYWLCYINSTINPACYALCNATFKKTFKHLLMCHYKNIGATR
Nature of the assay: Radioligand binding assay ([3H]NMS displacement), hM2. Conditions: [3H]NMS at 1 nM, CHO cell membranes, 60 minutes at 37° C. The protocol:
CHO (Chinese hamster ovary) cell lines stabilely expressing cloned human hM1, hM2, hM3 and hM4 muscarinic receptor subtypes, respectively, were grown to near confluency in medium consisting of HAM's F-12 supplemented with 10% FBS (Fetal Bovine Serum) and 250 μg/mL Geneticin. The cells were grown in a 5% CO2, 37° C. incubator and lifted with dPBS+2 mM EDTA. Cells were collected by 5 minute centrifugation at 650×g, and cell pellets were either stored frozen at −80° C. or membranes were prepared immediately. For membrane preparation, cell pellets were resuspended in lysis buffer and homogenized with a Polytron PT-2100 tissue disrupter (Kinematica AG; 20 seconds×2 bursts). Crude membranes were centrifuged at 40,000×g for 15 minutes at 4° C. […] Protein concentration of the membrane suspension was determined by the method of Lowry, O. et al., (1951) Journal of Biochemistry: 193, 265. […]
Radioligand binding assays were performed in 96-well microtiter plates in a total assay volume of 100 μL. […] Filter plates were rinsed three times with wash buffer (10 mM HEPES) to remove unbound radioactivity. […] The plates were then counted in a PerkinElmer Topcount liquid scintillation counter (PerkinElmer Inc., Wellesley, Mass.). Binding data were analyzed by nonlinear regression analysis with the GraphPad Prism Software package (GraphPad Software, Inc., San Diego, Calif.) using the one-site competition model. […]

Regarding `COc1ccncc1CN1CCC(N(CCCCCCCN2CC[C@@H](C(C(N)=O)(c3ccccc3)c3ccccc3)C2)C(C)C)CC1` [Example 6], the Ki is below 1 nM.

Source of the values: patent US20050113413A1, “Naphthalene-1,5-disulfonic acid salts of a substituted 4-amino-1-(pyridylmethyl)piperidine compound” (priority 2003, published 2005).
